Consider two molecules from patent publication US20150086511A1, “SURVIVAL, DIFFERENTIATION AND STRUCTURAL INTEGRATION OF HUMAN NEURAL STEM CELLS GRAFTED INTO THE ADULT RAT SPINAL CORD” (NEURALSTEM, INC., priority 2005, published 2015).

One test relates to SOD1-G93A mice. Kind of test: Clinical outcomes (disease onset, life span, motor score) in SOD1-G93A mice grafted with human NSCs. To be noted: SOD1-G93A mice grafted with live NSCs, by immunosuppressive regimen.
Test [1] concerns SOD1-G93A mice grafted with human NSCs. As to the kind of experiment: Graft rejection and human NSC graft survival under immunosuppressive regimens in SOD1-G93A mice (ICC for HNu, CD4, CD8, DX5, Iba-1). Particulars: compared to the double immunosuppressive regimen.
Method: Thus, five experimental groups were given different immunosuppressive treatments: the first group was treated with FK506 monotherapy (Prograf, Fujisawa Healthcare, Inc., Deerfield, Ill.) (2 μg/g/day, n=23); a second group was treated with a double immunosuppressive regimen combining FK506 and rapamycin (Calbiochem, La Jolla, Calif.) (1 μg/g/day each, n=21); a third group received triple immunosuppression with FK506, rapamycin, and MMF (CellCept, Roche, Nutley, N.J.) (1 μg/g/day each for FK506 and rapamycin, 100 μg/g/day for MMF, n=14); a fourth group was treated with CD4 antibodies (clone GK1.5, 20 μg/g/day, n=12); and a fifth group (n=10) was treated with FK506 plus rapamycin exactly as the second group, except that subjects were grafted with dead cells. Dead-cell grafts utilized cells that were exposed to repeated freezing-thawing and served to control for the potential therapeutic effects of immunosuppressants themselves on motor neuron disease. […] Males and females were randomly admixed in the various experimental groups to minimize a systemic effect of gender on disease progression and treatment response. […]

With `C=CC[C@@H]1/C=C(\C)C[C@H](C)C[C@H](OC)[C@H]2O[C@@](O)(C(=O)C(=O)N3CCCC[C@H]3C(=O)O[C@H](/C(C)=C/[C@@H]3CC[C@@H](O)[C@H](OC)C3)[C@H](C)[C@@H](O)CC1=O)[C@H](C)C[C@@H]2OC` [FK506], in the test with SOD1-G93A mice, the average disease onset came out at 13.2±1.8 weeks and the life span came to 17.6±2.0 weeks.

Regarding `COc1c(C)c2c(c(O)c1C/C=C(\C)CCC(=O)OCCN1CCOCC1)C(=O)OC2` [MMF, mycophenolate mofetil], the “effect of adding MMF to FK506 plus rapamycin on graft survival and infiltration by CD4/CD8 (+) cells or microglia/macrophages” value in test [1] is on record as “no apparent effects”.
